These results are taken from ChEMBL document CHEMBL4265875, “A comprehensive review on Aurora kinase: Small molecule inhibitors and clinical trial studies” (Eur J Med Chem, 2017).

One data set addresses Aurora kinase A (Homo sapiens, UniProt O14965). Briefly: Inhibition of Aurora A kinase (unknown origin).
For data set [1], the target named is T1, Aurora kinase B/Inner centromere protein (Homo sapiens, UniProt Q96GD4). Briefly: Inhibition of Aurora B/INCENP (unknown origin) pre-incubated for 1 hr followed by FL-PKAtide substrate and ATP addition. It counts as protein-complex assay.
The target of data set [2] is T1, Aurora kinase B/Inner centromere protein. The experiment in a line: Inhibition of Aurora B/INCENP (unknown origin) assessed as affinity constant pre-incubated for 1 hr followed by FL-PKAtide substrate and ATP addition. It counts as protein-complex assay.
The target of data set [3] is Aurora kinase B/Inner centromere protein (Homo sapiens) (UniProt Q96GD4+Q9NQS7). The experiment in a line: Inhibition of Aurora B/INCENP (unknown origin) assessed as inhibitor-enzyme complex half life pre-incubated for 1 hr followed by FL-PKAtide substrate and ATP addition. It counts as protein-complex assay.
Data set [4] is described as follows: Inhibition of Xenopus laevis aurora B (60 to 361 residues)/INCENP.
For data set [5], the system named is SW48. The experiment in a line: Antitumor activity against human SW48 cells xenografted in nude rat assessed as reduction in tumor growth at 15 mg/kg, po administered twice daily for 2 days per week for 3 weeks and measured on day 27 relative to untreated control. It is filed as functional. (In general: In xenograft studies the graft and the host belong to different species.)

Data set [6] can be described thus: Plasma concentration in F344/N Jcl-rnu rat xenografted with luciferase expressing human HeLa cells at 16 mg/kg, po BID for 2 days. It counts as ADME, organism-based.
The next data set relates to HCC1143. The experiment in a line: Antiproliferation activity against human HCC1143 cells assessed as inhibition of cell proliferation. It is filed as functional, cell-based.
In a further data set the test system is CAL-85-1. The experiment in a line: Antiproliferation activity against human CAL851 cells assessed as inhibition of cell proliferation. It is filed as functional, cell-based.
Data set [7] deals with SW48. Briefly: Antitumor activity against human SW48 cells xenografted in nude rat assessed as reduction in tumor growth at 15 mg/kg, po administered twice daily for 2 days per week measured on day 10 relative to untreated control. It counts as functional.
The test system of a further data set is HCC1806. Briefly: Antiproliferation activity against human HCC1806 cells assessed as inhibition of cell proliferation. It counts as functional, cell-based.
Data set [8] has as its system SW48. Briefly: Antitumor activity against human SW48 cells xenografted in nude rat assessed as reduction in tumor growth at 45 mg/kg, po administered twice daily for 2 days per week for 3 weeks and measured on day 27 relative to untreated control. It counts as functional.
The next data set has as its system MCF7. The experiment in a line: Antiproliferation activity against human MCF7 cells assessed as inhibition of cell proliferation. It counts as functional, cell-based.
Data set [9] in a line: Plasma concentration in F344/N Jcl-rnu rat xenografted with luciferase expressing human HeLa cells at 32 mg/kg, po BID for 2 days. It counts as ADME, organism-based.
Data set [10] deals with SW48. Briefly: Antitumor activity against human SW48 cells xenografted in nude rat assessed as reduction in tumor growth at 45 mg/kg, po administered twice daily for 2 days per week measured on day 10 relative to untreated control. It counts as functional.
Another data set concerns AU565. Briefly: Antiproliferation activity against human AU565 cells assessed as inhibition of cell proliferation. It is filed as functional, cell-based.
The subject of data set [11] is HCT-116. Briefly: Antitumor activity against human HCT116 cells xenografted in SCID mouse assessed as reduction in tumor bulk at 15 mg/kg, po bid for 12 days relative to untreated control. It is filed as functional.
Data set [12] deals with HCT-116. The experiment in a line: Antitumor activity against human HCT116 cells xenografted in SCID mouse assessed as reduction in tumor bulk at 30 mg/kg, po bid for 12 days relative to untreated control. It is filed as functional.
Data set [13] is described as follows: Growth inhibition of in human myeloma cells. It is filed as functional, cell-based.
For data set [14], the target named is T2, Aurora kinase B (Homo sapiens, UniProt Q96GD4). The experiment in a line: Inhibition of full-length His-tagged recombinant aurora B (unknown origin) expressed in insect cells using biotinylated LRRWSLG substrate by scintillation proximity assay.
For data set [15], the system named is HCT-116. The experiment in a line: Antitumor activity against human HCT116 cells xenografted in mouse assessed as inhibition of tumor growth at 20 mg/kg, po qd for 10 days. Particulars: HCT-116, po, 240 h, read-out: TGI. It counts as functional.
For data set [16], the target named is T2, Aurora kinase B. Briefly: Inhibition of aurora B in human MDA-MB-231 cells assessed as reduction in phosphorylation of histone H3 on Ser10 incubated for 4 hrs by high-content immunofluorescence imaging. It counts as cell-based.
Data set [17] deals with T2, Aurora kinase B. The experiment in a line: Inhibition of aurora B in human MDA-MB-231 cells assessed as reduction in enzyme autophosphorylation incubated for 4 hrs by high-content immunofluorescence imaging. It is filed as cell-based.
For another data set, the system named is HL-60. The experiment in a line: Antitumor activity against human HL60 cells xenografted in nude mouse assessed as reduction in tumor size at 75 mg/kg, ip bid for 13 days. Details: scale not given: the % may be the effect or the level left. It is filed as functional, organism-based.
The subject of data set [18] is HCT-116. Briefly: Antitumor activity against human HCT116 cells xenografted in nude mouse assessed as reduction in tumor size at 2 mg/kg/hr. It is filed as functional, organism-based. Details: scale not given: the % may be the effect or the level left.
The next data set concerns HT-29. The experiment in a line: Growth inhibition of human HT-29 cells by XTT assay. It is filed as functional, cell-based. (Formazan colour is commonly taken as a measure of viable cells.)
For a further data set, the system named is HeLa. The experiment in a line: Growth inhibition of human HeLa cells by XTT assay. It is filed as functional, cell-based.
The subject of data set [19] is HCT-116. Briefly: Growth inhibition of human HCT116 cells by XTT assay. It is filed as functional, cell-based.
For the next data set, the system named is KCL-22. Briefly: Induction of apoptosis in human KCL22 cells by Annexin V staining based assay. It is filed as functional, cell-based.
Data set [20] in a line: Oral bioavailability in fasted monkey at 2 mg/kg administered as single dose by orogastric gavage by LC-MS/MS analysis. It counts as ADME, organism-based, Macaca mulatta. Particulars: rhesus monkey, in vivo.
Data set [21] is described as follows: Oral bioavailability in fasted dog at 2 mg/kg administered as single dose by orogastric gavage by LC-MS/MS analysis. To be noted: in vivo. It is filed as ADME, organism-based, Canis lupus familiaris.
Data set [22] can be described thus: Oral bioavailability in fasted rat at 5 mg/kg administered as single dose by orogastric gavage by LC-MS/MS analysis. It counts as ADME, organism-based. Particulars: in vivo.
The target in data set [23] is T2, Aurora kinase B. Briefly: Inhibition of recombinant aurora B (unknown origin).
A short description of data set [24]: Half life in fasted monkey at 2 mg/kg administered as single dose by orogastric gavage by LC-MS/MS analysis. It is filed as ADME, organism-based, Macaca mulatta. Particulars: rhesus monkey, in vivo, po.
The next data set concerns the target Aurora kinase C (Homo sapiens, UniProt Q9UQB9). Briefly: Inhibition of Aurora C kinase (unknown origin).
Data set [25] in a line: Half life in fasted dog at 2 mg/kg administered as single dose by orogastric gavage by LC-MS/MS analysis. It is filed as ADME, organism-based, Canis lupus familiaris. To be noted: in vivo, po.
A short description of data set [26]: Half life in fasted mouse at 5 mg/kg administered as single dose by orogastric gavage by LC-MS/MS analysis. It is filed as ADME, organism-based. To be noted: in vivo, po.
A short description of data set [27]: Half life in fasted rat at 5 mg/kg administered as single dose by orogastric gavage by LC-MS/MS analysis. It counts as ADME, organism-based. To be noted: in vivo, po.
Data set [28] can be described thus: Oral bioavailability in fasted mouse at 5 mg/kg administered as single dose by orogastric gavage by LC-MS/MS analysis. Particulars: in vivo. It is filed as ADME, organism-based.

Broadly, the IC50 is the concentration that inhibits the measured activity by half. The term Ki denotes a dissociation constant, usually derived from enzyme kinetics or from competition with a known ligand. The T/C is the result in the treated group divided by that in the control group, in per cent. A word on the half-life: it is how long it takes for the measured level to halve.

T2 sequence (Q96GD4 whole entry): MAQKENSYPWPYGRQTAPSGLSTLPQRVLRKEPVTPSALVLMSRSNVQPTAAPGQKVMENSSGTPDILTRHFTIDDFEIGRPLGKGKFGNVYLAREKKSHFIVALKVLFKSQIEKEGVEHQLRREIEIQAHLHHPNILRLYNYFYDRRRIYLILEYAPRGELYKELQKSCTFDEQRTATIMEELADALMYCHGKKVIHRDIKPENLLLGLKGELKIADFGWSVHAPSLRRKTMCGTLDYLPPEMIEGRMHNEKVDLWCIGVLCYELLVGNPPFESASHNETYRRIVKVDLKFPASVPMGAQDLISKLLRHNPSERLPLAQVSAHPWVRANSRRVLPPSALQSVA
T1 sequence (Q96GD4 whole entry): as above
T1 sequence (Q9NQS7 whole entry, further chain): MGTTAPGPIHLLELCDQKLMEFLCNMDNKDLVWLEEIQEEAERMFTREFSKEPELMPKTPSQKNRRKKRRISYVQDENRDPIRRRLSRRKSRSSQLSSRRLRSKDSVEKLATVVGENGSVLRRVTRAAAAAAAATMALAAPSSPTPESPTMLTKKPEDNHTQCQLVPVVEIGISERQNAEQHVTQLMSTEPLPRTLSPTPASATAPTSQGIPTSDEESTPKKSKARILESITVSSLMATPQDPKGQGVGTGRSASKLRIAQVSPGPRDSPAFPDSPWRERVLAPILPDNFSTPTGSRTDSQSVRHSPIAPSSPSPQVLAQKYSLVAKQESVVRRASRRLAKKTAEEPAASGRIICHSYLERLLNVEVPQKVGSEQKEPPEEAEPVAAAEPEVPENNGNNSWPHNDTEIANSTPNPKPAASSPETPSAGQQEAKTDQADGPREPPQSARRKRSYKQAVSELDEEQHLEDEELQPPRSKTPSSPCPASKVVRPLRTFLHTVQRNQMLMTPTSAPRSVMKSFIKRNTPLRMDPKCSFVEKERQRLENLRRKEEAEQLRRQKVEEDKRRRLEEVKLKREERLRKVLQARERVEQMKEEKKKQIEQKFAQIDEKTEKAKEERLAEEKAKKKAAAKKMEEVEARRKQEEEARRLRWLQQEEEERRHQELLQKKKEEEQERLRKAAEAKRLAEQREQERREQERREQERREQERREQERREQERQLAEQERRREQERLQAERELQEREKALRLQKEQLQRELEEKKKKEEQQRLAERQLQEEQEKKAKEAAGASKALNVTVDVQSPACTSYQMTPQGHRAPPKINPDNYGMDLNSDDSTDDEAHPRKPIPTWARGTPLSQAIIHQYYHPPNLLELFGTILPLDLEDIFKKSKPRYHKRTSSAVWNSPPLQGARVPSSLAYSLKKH
Aurora kinase C, sequence (Q9UQB9 whole entry): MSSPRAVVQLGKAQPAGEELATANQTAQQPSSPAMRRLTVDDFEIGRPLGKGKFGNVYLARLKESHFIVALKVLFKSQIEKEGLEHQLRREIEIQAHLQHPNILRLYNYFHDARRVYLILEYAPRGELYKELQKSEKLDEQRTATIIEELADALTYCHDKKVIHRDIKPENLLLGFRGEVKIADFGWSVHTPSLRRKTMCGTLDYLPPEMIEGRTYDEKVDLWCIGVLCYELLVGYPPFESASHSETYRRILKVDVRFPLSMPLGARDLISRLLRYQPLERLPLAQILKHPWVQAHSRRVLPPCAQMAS
Aurora kinase A, sequence (O14965 whole entry): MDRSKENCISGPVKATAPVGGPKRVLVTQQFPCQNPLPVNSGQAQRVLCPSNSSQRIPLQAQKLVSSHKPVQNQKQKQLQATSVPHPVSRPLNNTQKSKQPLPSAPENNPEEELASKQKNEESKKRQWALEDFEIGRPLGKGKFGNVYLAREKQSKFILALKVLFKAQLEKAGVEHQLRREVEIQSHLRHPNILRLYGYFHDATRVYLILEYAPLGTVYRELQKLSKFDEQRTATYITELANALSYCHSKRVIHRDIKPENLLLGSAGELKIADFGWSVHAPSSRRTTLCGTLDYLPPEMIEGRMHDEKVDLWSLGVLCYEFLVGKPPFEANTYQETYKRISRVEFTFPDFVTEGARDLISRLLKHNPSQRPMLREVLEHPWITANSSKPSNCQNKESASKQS

Take `O=C1c2[nH]c3cc(-c4ccco4)nn3c(=O)c2CN1Cc1ccccc1`: half-maximal inhibition at Aurora kinase A (IC50) was put at 560 nM.

`CCS(=O)(=O)c1cccc(-c2cc(C(=O)NC3CCN(C)CC3)c(C)c3[nH]c4ncc(C)cc4c23)c1` [TAK-901] registered an IC50 in data set [1] of 15 nM. Further, the Ki in [2] was found to be 0.02 nM. Besides, the T1/2 in data set [3] came out at 15.3 h.

For the compound `CCS(=O)(=O)Nc1ccc2c(c1)/C(=C(/Nc1ccc(CN3CCCCC3)cc1)c1ccccc1)C(=O)N2` [HESPERADIN], the IC50 in [4] is 250 nM.

With `O=C(O)[C@]1(Cc2cccc(Nc3nccs3)n2)CC[C@@H](Oc2cccc(Cl)c2F)CC1` [MK-5108], the T/C in the data set with SW48 [5] is recorded as 58%; with SW48 [7] it was 35%; in the data set on SW48 [8], 32%; in the data set with SW48 [10] it was 7%; in the data set with HCT-116 [11], 10%; in the data set with HCT-116 [12], 6%. For the same compound, the concentration at 48 h worked out at 1.7 µM in data set [6] and 4.4 µM in [9]. The IC50 with HCC1143 turned out to be 420 nM; in the data set with CAL-85-1 it was 740 nM; with HCC1806 it was 560 nM; in the data set with MCF7 it was 520 nM; in the data set on AU565 it was 450 nM.

With `Cc1cc(Nc2cc(N3CCN(C)CC3)nc(/C=C/c3ccccc3)n2)n[nH]1` [ENMD-2076], in [13], the IC50 is 2990 to 7060 nM.

As to `CC(=O)NCC(=O)N1[C@@H]2CC[C@H]1c1ccc(Nc3ncc(C(F)(F)F)c(NC4CCC4)n3)cc12` [PF-03814735], the IC50 at Aurora kinase B [14] was 5 nM; at Aurora kinase B [16] it was 50 nM; on Aurora kinase B [17], 11 nM. The inhibition in vivo at 20 mg/kg with HCT-116 [15] is ≤ 50%.

On to `Cc1cc(Nc2cc(N3CCN(C)CC3)nc(Sc3ccc(NC(=O)C4CC4)cc3)n2)n[nH]1`, for which the values for the Activity with HL-60 and in the data set with HCT-116 [18] were 98% and 56%, respectively.

For the compound `CCN1CCN(C(=O)Cc2ccc(Nc3ncc(F)c(Nc4ccc(C(=O)Nc5ccccc5Cl)cc4)n3)cc2)CC1`, the IC50 in the data set on HT-29 was 5600 nM; with HeLa, 416 nM; in the data set with HCT-116 [19] it was 190 to 378 nM; in the data set with KCL-22 it was 5000 nM.

For `Cc1csc(-c2nnc(Nc3ccc(Oc4ncccc4-c4ccnc(N)n4)cc3)c3ccccc23)c1` [AMG-900], the bioavailability in data set [20], in data set [21], in data set [22] and in [28] was 31 to 107% each time. Moreover, the IC50 on Aurora kinase B [23] is 4 nM; against Aurora kinase C, 1 nM. Moreover, the half-life in data set [24], in [25], in [26] and in data set [27] was 0.6 to 2.4 h throughout.
